Test system: pain (VAS scale) in patients
Assay: Punctual stimulation on both ears with simultaneous intravenous infusion of D-phenylalanine solution; pain reduction in patient case reports
Format: in vivo, human
From the text: Very good relief of existing pain can be achieved by means of punctual stimulation, in which electrical current is supplied by way of needle electrodes stuck into the skin, whereby these needle electrodes are placed, in particular, at specifically sensitive points of an outer ear, in the case of the predominant number of patients treated with such stimulation.
On each of three consecutive days, punctual stimulation on both ears, with simultaneous intravenous infusion of a substance that inhibits the enzymatic decomposition of endogenous opioid neuropeptides, was carried out. Afterwards, punctual stimulation was carried out without infusion for the four subsequent days, by means of a small device worn by the patient, to supply power to needle electrodes that are stuck into the skin on one ear. This sequence was repeated several times, in coordination with the patient's need for pain reduction. In the case of punctual stimulations carried out with simultaneous infusion, electrical current was supplied to needle electrodes that were stuck into sensitive points of both ears. A sterile aqueous solution containing 20 g/L D-phenylalanine was administered as the infusion, whereby a total amount of D-phenylalanine of 200 to 300 mg/kilogram of body weight was administered during every treatment procedure. On the first days of the three-day sequences, in each instance, the infusion was started at least 10 min before the punctual stimulation. The flow velocity of the infusion was selected in accordance with an infusion period of 2.5 to 5 h.
Admission to clinic. Punctual stimulation carried out without infusion, by means of power supply to needle electrodes that are stuck into one ear, over a period of four days. Pain reduction achieved in this manner. Subsequently, punctual stimulation by means of power supply to needle electrodes that are stuck in both ears, and simultaneous intravenous infusion of an aqueous solution containing 15 g/L D-phenylalanine, in an amount of 250 mg/kg of body weight. An anti-emetic was also added to the solution. Duration of infusion about 3 h. During the course of this treatment, pain reduction all the way to freedom from pain (VAS-0). After 8 days, discharge from the clinic—free of symptoms, no vomiting, no nausea, no medication. At discharge, application of a device for punctual stimulation on one ear, without infusion, as mentioned above, for four days. Freedom from symptoms remains maintained during this stimulation period. On the following days, slight pain in the abdominal region, in individual instances. Three days after completion of the prior stimulation, again application of a device for a stimulation lasting four days—immediately clear relief. After this stimulation, again increase in pain, but tolerable without medication. After another three days, again application of such a device—free of symptoms. After removal of the device, again slight increase in pain, whereby the number of pain attacks and their intensity has decreased in comparison with previously. After several days, again a device applied for stimulation on one ear, lasting for four days—free of symptoms. After removal of the device, slow increase in pain to VAS-3-4. Ten days after removal of the device, again punctual stimulation on two ears, with intravenous infusion, as explained above. Pain reduction to VAS-0. […] Subsequently slow increase in pain up to maximum VAS-4. Two weeks after punctual stimulation on both ears, again application of a device for four days of stimulation on one ear without infusion—free of symptoms during stimulation. Another two weeks later, again application of such a device—free of symptoms during stimulation. Afterwards, more severe pain again in paraumbilical region, in individual instances. Again, application of a device as mentioned—free from symptoms during the stimulation. Later, sudden increase in pain. Therefore one week later, again punctual stimulation on both ears, with infusion. VAS-0. […]

Question: With `N[C@H](Cc1ccccc1)C(=O)O` [D-phenylalanine] as the molecule, how does the “dulling of sensory system” value (after first treatment, 20 g/L, 300 mg/kg i.v.) read?
Answer: The value was “without dulling of the sensory system”.

Question: What about the “duration of complete freedom from pain after treatment” value (after second treatment with infusion) of the same molecule?
Answer: The value was 48 h.

Question: And the “maximum pain (VAS) on slow increase after treatment” value (after the 48 h following second treatment with infusion)?
Answer: Its value is ≤ 4 VAS.

Question: And the “pain (VAS) on increase after the pain-free period” value (after three pain-free days)?
Answer: The value was 4 VAS.

Question: And the pain after treatment (ankle pain VAS-10, back pain, first treatment: 15 g/L, 250 mg/kg i.v., 3 h, stimulation on both ears)?
Answer: Its pain after treatment is “complete freedom from pain”.

Question: And the “pain reduction during each treatment procedure” value (carcinoma with generalized metastases, 20 g/L D-phenylalanine i.v., 200 to 300 mg/kg, infusion 2.5 to 5 h, with punctual stimulation on both ears, three consecutive days)?
Answer: The value was “pain reduction, which went all the way to freedom from pain”.

Question: And the “pain (VAS) during treatment” value (lumbar ischialgia, from VAS 9.5, 20 g/L, 300 mg/kg i.v., 3 h, stimulation on both ears)?
Answer: The value was 0 VAS.

Question: What about the pain after treatment (second treatment on both ears with infusion) of the same molecule?
Answer: The pain after treatment was “Complete freedom from pain”.

Question: What about the pain after treatment (second treatment with infusion, from VAS-6) of the same molecule?
Answer: Its pain after treatment is “complete freedom from pain achieved”.

From patent US7781486B2, “Punctual stimulation therapy” (priority 2003, dated 2010)
